According to patent US20150219624A1, “METHODS FOR IDENTIFYING ANTI-CANCER COMPOUNDS” (MEMORIAL SLOAN KETTERING CANCER CENTER, priority 2013, published 2015):
Where “and” joins values, the source holds several entries; their conditions need not be identical. Equal entries are not always repeated.

Assay: In vivo toxicity studies (body and organ weights, hematology, clinical chemistry, histopathology)
Method: Toxicity studies. Eight week-old C57Bl/6NTac female mice were randomly assigned to either control or treatment groups. Each treatment group received one daily dose of test article through i.p. injection over 5 consecutive days. Toxicity was monitored by weight loss and daily clinical observation for the 14 days following test article administration. 24 hours after the last test article administration 4 mice in each group were sacrificed and clinical chemistry, hematology and tissue specific histopathology were done at autopsy. The remaining mice (n=2 per group) were kept under observation for an additional 13 days; at that point all mice were sacrificed and clinical chemistry, hematology and tissue specific histopathology were done at time of autopsy.
D) KOPT-K1 xenograft studies.

[1] = 0.2 mg/kg, female, Day 5, individual animals
[2] = 0.2 mg/kg, female, Day 19, % change of mean vs vehicle
[3] = 0.2 mg/kg, female, Day 19, group mean
[4] = 0.2 mg/kg, female, Day 19, individual animals
[5] = bone marrow cytology, count of 300 total cells, individual animals Treatment #7-#10
[6] = bone marrow cytology, individual animals Treatment #7-#10
[7] = spleen cytology, individual animals Treatment #7-#10
[8] = therapeutic doses (0.2 mg/kg i.p.)

In the case of (±)-CR-31-B, the NEUT [1] is reported as 1.05 K/uL and 1.69 K/uL and 1.40 K/uL and 1.70 K/uL, the NEUT % [1] is reported as 21.94% and 24.51% and 28.20% and 24.44% and the Na [1] is reported as 152 mEq/L and 147 mEq/L (2×) and 150 mEq/L. The PLT [1] was 872 K/uL and 673 K/uL and 676 K/uL and 682 K/uL, the RBC [1] was 9.31 M/uL and 8.95 M/uL and 8.69 M/uL and 8.89 M/uL and the RDW % [1] was 15.6% and 16.1% and 15.2% and 16.4%. The “Right Kidney” value [1] was 0.119 gm and 0.125 gm (2×) and 0.135 gm and 0.75 % body wt and 0.73 % body wt and 0.77 % body wt and 0.78 % body wt, the Spleen [1] was 0.049 gm and 0.070 gm and 0.086 gm and 0.064 gm and 0.31 % body wt and 0.41 % body wt and 0.49 % body wt and 0.40 % body wt and the TBIL [1] was 0.2 mg/d L (3×) and 0.1 mg/d L. For the same substance, the TP [1] was 5.1 g/dL and 4.8 g/dL (2×) and 4.9 g/dL, the WBC [1] was 4.78 K/uL and 6.90 K/uL and 4.98 K/uL and 6.96 K/uL and the “BASO % % ChVh” value [2] was 27.3%. The “BASO (K/uL) % ChVh” value [2] was −100.0%, the “Body Weight % ChVh” value [2] was 3.6% and the “EOS % % ChVh” value [2] was 5.5%. The “EOS (K/uL) % ChVh” value [2] was −50.0%, the “HCT % % ChVh” value [2] was 0.2% and the “HGB % ChVh” value [2] was −5.0%. The “LYM % % ChVh” value [2] was −0.1%, the “LYM (K/uL) % ChVh” value [2] was −58.8% and the “Left Kidney (% body wt) % ChVh” value [2] was −9.1%. For the same substance, the “Left Kidney (gm) % ChVh” value [2] was −11.8%, the “Liver (% body wt) % ChVh” value [2] was 4.1% and the “Liver (gm) % ChVh” value [2] was 7.9%. For the same substance, the “MCH % ChVh” value [2] was -4.5%, the “MCHC % ChVh” value [2] was -5.4% and the “MCV % ChVh” value [2] was 0.4%. For the same substance, the “MONO % % ChVh” value [2] was −34.0%, the “MONO (K/uL) % ChVh” value [2] was −70.0% and the “MPV % ChVh” value [2] was 4.3%. The “NEUT % % ChVh” value [2] was 3.7%, the “NEUT (K/uL) % ChVh” value [2] was −56.3% and the “PLT % ChVh” value [2] was 10.5%. For the same substance, the “RBC % ChVh” value [2] was −0.2%, the “RDW % % ChVh” value [2] was 0.6% and the “Right Kidney (% body wt) % ChVh” value [2] was −6.3%. The “Right Kidney (gm) % ChVh” value [2] was −3.6%, the “Spleen (% body wt) % ChVh” value [2] was 0.0% and the “Spleen (gm) % ChVh” value [2] was 3.2%. The “WBC % ChVh” value [2] was −58.5%, the BASO [3] was 0.00 K/uL and the BASO % [3] was 0.14%. For the same substance, the “Body Weight” value [3] was 17.981 gm, the EOS [3] was 0.02 K/uL and the EOS % [3] was 0.58%. For the same substance, the HCT % [3] was 44.2%, the HGB [3] was 13.2 g/dL and the LYM [3] was 2.46 K/uL. For the same substance, the LYM % [3] was 84.19%, the MCH [3] was 14.7 pg and the MCHC [3] was 29.9 g/dL. The MCV [3] was 49.0 fL, the MONO [3] was 0.03 K/uL and the MONO % [3] was 0.93%. The MPV [3] was 4.8 fL, the NEUT [3] was 0.42 K/uL and the NEUT % [3] was 14.16%. It also gave a PLT [3] of 1196.5 K/uL, an RBC [3] of 9.02 M/uL and an RDW % [3] of 16.3%. For the same substance, the WBC [3] was 2.93 K/uL, the “2D. Individual chemistry, column 2 (head not shown; probably ALP)” value [4] was 144 and 160 and the “2D. Individual chemistry, column 3 (head not shown; probably ALT)” value [4] was 20 and 22. For the same substance, the “2D. Individual chemistry, column 4 (head not shown; probably AST)” value [4] was 33 and 38, the “2D. Individual chemistry, column 5 (head not shown; probably GGT)” value [4] was 0 and the “2D. Individual chemistry, column 6 (head not shown; probably albumin)” value [4] was 2.9. For the same substance, the “2D. Individual chemistry, column 7 (head not shown; probably total protein)” value [4] was 4.7, the “2D. Individual chemistry, column 8 (head not shown; probably globulin)” value [4] was 1.8 and the “2D. Individual chemistry, column 10 (head not shown; probably total bilirubin)” value [4] was 0.1. For the same substance, the “2D. Individual chemistry, column 11 (head not shown; probably BUN)” value [4] was 29 and 35, the “2D. Individual chemistry, column 12 (head not shown; probably creatinine)” value [4] was 0.2 and the BASO [4] was 0.00 K/uL. The BASO % [4] was 0.14% and 0.13%, the “Body Weight” value [4] was 18.769 gm and 17.192 gm and the CHOL [4] was 71 mg/dL and 59 mg/dL. For the same substance, the Ca [4] was 9.0 mg/dL and 9.4 mg/dL, the Cl [4] was 112 mEq/L and 117 mEq/L and the EOS [4] was 0.02 K/uL. For the same substance, the EOS % [4] was 0.50% and 0.66%, the GLUC [4] was 254 mg/dL and 227 mg/dL and the HCT % [4] was 45.9% and 42.5%. The HGB [4] was 13.4 g/dL and 13.0 g/dL, the K [4] was 3.5 mEq/L and 4.0 mEq/L and the LYM [4] was 2.80 K/uL and 2.12 K/uL. For the same substance, the LYM % [4] was 83.42% and 84.96%, the “Left Kidney” value [4] was 0.111 gm and 0.113 gm and 0.73 % body wt and 0.66 % body wt and the Liver [4] was 1.111 gm and 0.988 gm and 5.92 % body wt and 5.75 % body wt. For the same substance, the MCH [4] was 14.4 pg and 14.9 pg, the MCHC [4] was 29.2 g/dL and 30.6 g/dL and the MCV [4] was 49.2 fL and 48.8 fL. The MONO [4] was 0.03 K/uL and 0.02 K/uL, the MONO % [4] was 0.91% and 0.95% and the MPV [4] was 4.6 fL and 4.9 fL. For the same substance, the NEUT [4] was 0.51 K/uL and 0.33 K/uL, the NEUT % [4] was 15.03% and 13.29% and the Na [4] was 147 mEq/L and 149 mEq/L. For the same substance, the PLT [4] was 990 K/uL and 1403 K/uL, the RBC [4] was 9.33 M/uL and 8.70 M/uL and the RDW % [4] was 16.4% and 16.2%. The “Right Kidney” value [4] was 0.137 gm and 0.127 gm and 0.73 % body wt and 0.74 % body wt, the Spleen [4] was 0.081 gm and 0.048 gm and 0.43 % body wt and 0.28 % body wt and the WBC [4] was 3.36 K/uL and 2.50 K/uL. For the same substance, the Lymph [5] was 64 and 60 and 61 and 44, the Mast [5] was 0 and the Mat ery [5] was 56 and 62 and 45 and 38. For the same substance, the Mat myel [5] was 122 (2×) and 88 (2×) and 120 (2×) and 121 (2×), the Plasma [5] was 0 and the Pro myel [5] was 34 and 64 and 52 and 72. For the same substance, the Prol ery [5] was 24 and 26 and 22 and 25, the “Total Ery” value [5] was 80 and 88 and 67 and 63 and the Total myel [5] was 156 and 152 and 172 and 193. The “% Lymph” value [6] was 21.3% and 20.0% and 20.3% and 14.7%, the “% Mast” value [6] was 0.0% and the “% Mat ery” value [6] was 18.7% and 20.7% and 15.0% and 12.7%. The “% Plasma” value [6] was 0.0%, the “% Pro ery” value [6] was 8.0% and 8.7% and 7.3% and 8.3% and the “% Pro myel” value [6] was 11.3% and 21.3% and 17.3% and 24.0%. For the same substance, the “% T ery” value [6] was 26.7% and 29.3% and 22.3% and 21.0%, the “% T myel” value [6] was 52.0% and 50.7% and 57.3% and 64.3% and the “% mat myel” value [6] was 40.7% and 29.3% and 40.0% and 40.3%. For the same substance, the “M:E” value [6] was 2.0 and 1.7 and 2.6 and 3.1, the intestinal histology (during and after treatment) was “No changes” and the “% Erythroid” value [7] was 0% (3×) and 1%. For the same substance, the “% Lymph” value [7] was 94% (2×) and 90% (4×) and 86% (2×), the “% Macrophage” value [7] was 2% (3×) and 0% and the “% Mesenchymal” value [7] was 0% (3×) and 2%. For the same substance, the “% Myeloid” value [7] was 4% and 7% and 9% and 10%, the “% Plasma” value [7] was 0% (3×) and 1% and the “other blood counts, bone marrow cytology, serum chemistry” value [8] was “no other changes”. For the same substance, the white cell count [8] was “reversible drop in white cell count with a nadir on day 19”.
